Reference: ChEMBL document CHEMBL4138088, “Novel 1-(7-ethoxy-1-benzofuran-2-yl) substituted chalcone derivatives: Synthesis, characterization and anticancer activity” (Eur J Med Chem, 2017)
The source made the active and inactive calls. The calls are words filed in the database; no cut-off is given here.

How the values were obtained:
Type in all cases: functional, cell-based
MCF7 [1] = test: Growth inhibition of human MCF7 cells at 20 uM after 72 hrs by ATP bioluminescence assay
MCF7 [2] = test: Growth inhibition of human MCF7 cells at 20 uM after 72 hrs by SRB assay
HCT-116 [3] = test: Antiproliferative activity against human HCT116 cells after 24 hrs by MTT assay; conditions: HCT-116, 24 h
HCT-116 [4] = test: Antiproliferative activity against human HCT116 cells after 12 hrs by MTT assay; conditions: HCT-116, 12 h
HCT-116 [5] = test: Antiproliferative activity against human HCT116 cells after 48 hrs by MTT assay; conditions: HCT-116, 48 h
HCT-116 [6] = test: Antiproliferative activity against human HCT116 cells after 6 hrs by MTT assay; conditions: HCT-116, 6 h
CT26.WT = test: Antiproliferative activity against mouse CT26.WT cells after 48 hrs by MTT assay
SW-620 = test: Antiproliferative activity against human SW620 cells after 48 hrs by MTT assay; conditions: SW-620, 48 h

Compound | growth inhibition (GI) (MCF7 [1]) | growth inhibition (GI) (MCF7 [2]) | IC50 (HCT-116 [5]) [µM] | further results
CCOc1cccc2cc(C(=O)/C=C/c3ccc[nH]3)oc12 | Active | Active |  | 
CCOc1cccc2cc(C(=O)/C=C/c3cccs3)oc12 | Active | Active |  | 
COc1cc(/C=C/C(=O)c2cccc(-n3c(C)nc4ccccc4c3=O)c2)ccc1O |  |  | 16 | IC50 (HCT-116 [3]): 26 µM; IC50 (HCT-116 [4]): 140 µM; IC50 (HCT-116 [6]): 600 µM
COc1ccccc1/C=C/C(=O)c1ccc(O)c(O)c1 |  |  | 25.9 | IC50 (CT26.WT): 3.36 µM; IC50 (SW-620): 11.7 µM
